Source: patent publication US20180055032A1, “ODORS FOR PSYLLID TRAPPING, REPELLING AND CONTROL” (The Regents of the University of California, priority 2011, published 2018)

Key:
Format in all cases: cell-based, Diaphorina citri
[1] = tested on: neuron 7A (rhinarial plate on flagellomere 7); experiment: single-sensillum electrophysiology, odor response of neuron 7A; conditions: for odor response (frequency of action potentials during stimulus minus baseline), 7A: Table 1, odor diluted to 1%, 50 μL in cartridge; for response to inhibitory odors, 7A: Table 2, odor diluted to 10^−2, 50 μL in cartridge; as to all read-outs here: key: 0, no response; +, >50 spikes/second; ++, >100 spikes/second; +++, >150 spikes/second
[2] = tested on: neuron 7C (rhinarial plate on flagellomere 7); experiment: single-sensillum electrophysiology, odor response of neuron 7C; conditions: for odor response (frequency of action potentials during stimulus minus baseline), 7C: Table 1, odor diluted to 1%, 50 μL in cartridge; for response to inhibitory odors, 7C: Table 2, odor diluted to 10^−2, 50 μL in cartridge
[3] = tested on: neuron 6C (rhinarial plate on flagellomere 6); experiment: single-sensillum electrophysiology, odor response of neuron 6C; conditions: for odor response (frequency of action potentials during stimulus minus baseline), 6C: Table 1, odor diluted to 1%, 50 μL in cartridge; for response to inhibitory odors, 6C: Table 2, odor diluted to 10^−2, 50 μL in cartridge; as to response to ultra-prolonged activators, 6C: key: 0, no response; +, >50 spikes/second; ++, >100 spikes/second; +++, >150 spikes/second
[4] = tested on: neuron 4C (rhinarial plate on flagellomere 4); experiment: single-sensillum electrophysiology, odor response of neuron 4C; conditions: for odor response (frequency of action potentials during stimulus minus baseline), 4C: Table 1, odor diluted to 1%, 50 μL in cartridge; for response to inhibitory odors, 4C: Table 2, odor diluted to 10^−2, 50 μL in cartridge; as to response to ultra-prolonged activators, 4C: key: 0, no response; +, >50 spikes/second; ++, >100 spikes/second; +++, >150 spikes/second
[5] = tested on: neuron 7B (rhinarial plate on flagellomere 7); conditions: for odor response (frequency of action potentials during stimulus minus baseline), 7B: Table 1, odor diluted to 1%, 50 μL in cartridge
[6] = tested on: neuron 6A (rhinarial plate on flagellomere 6); experiment: single-sensillum electrophysiology, odor response of neuron 6A; conditions: for odor response (frequency of action potentials during stimulus minus baseline), 6A: Table 1, odor diluted to 1%, 50 μL in cartridge; for response to inhibitory odors, 6A: Table 2, odor diluted to 10^−2, 50 μL in cartridge
[7] = tested on: neuron 2B (rhinarial plate on flagellomere 2); experiment: single-sensillum electrophysiology, odor response of neuron 2B; conditions: for odor response (frequency of action potentials during stimulus minus baseline), 2B: Table 1, odor diluted to 1%, 50 μL in cartridge; for response to inhibitory odors, 2B: Table 2, odor diluted to 10^−2, 50 μL in cartridge
[8] = tested on: neuron 4A (rhinarial plate on flagellomere 4); experiment: single-sensillum electrophysiology, odor response of neuron 4A; conditions: for odor response (frequency of action potentials during stimulus minus baseline), 4A: Table 1, odor diluted to 1%, 50 μL in cartridge; for response to inhibitory odors, 4A: Table 2, odor diluted to 10^−2, 50 μL in cartridge
[9] = tested on: neuron 6B (rhinarial plate on flagellomere 6); experiment: single-sensillum electrophysiology, odor response of neuron 6B; conditions: for odor response (frequency of action potentials during stimulus minus baseline), 6B: Table 1, odor diluted to 1%, 50 μL in cartridge; for response to inhibitory odors, 6B: Table 2, odor diluted to 10^−2, 50 μL in cartridge
[10] = tested on: neuron 4B (rhinarial plate on flagellomere 4); conditions: for odor response (frequency of action potentials during stimulus minus baseline), 4B: Table 1, odor diluted to 1%, 50 μL in cartridge; for response to inhibitory odors, 4B: Table 2, odor diluted to 10^−2, 50 μL in cartridge
[11] = tested on: neuron 2A (rhinarial plate on flagellomere 2); experiment: single-sensillum electrophysiology, odor response of neuron 2A; conditions: for odor response (frequency of action potentials during stimulus minus baseline), 2A: Table 1, odor diluted to 1%, 50 μL in cartridge; for response to inhibitory odors, 2A: Table 2, odor diluted to 10^−2, 50 μL in cartridge; as to all read-outs here: key: 0, no response; +, >50 spikes/second; ++, >100 spikes/second; +++, >150 spikes/second
[12] = tested on: neuron 2C (rhinarial plate on flagellomere 2); experiment: single-sensillum electrophysiology, odor response of neuron 2C; conditions: for odor response (frequency of action potentials during stimulus minus baseline), 2C: Table 1, odor diluted to 1%, 50 μL in cartridge
[13] = Table 3, 10^−2 in paraffin oil, 50 μL, odor puff of 0.5 sec
[14] = Table 2, odor diluted to 10^−2, 50 μL in cartridge

| Compound | odor response (frequency of action potentials during stimulus minus baseline), 7A [1] | odor response (frequency of action potentials during stimulus minus baseline), 7C [2] | odor response (frequency of action potentials during stimulus minus baseline), 6C [3] | odor response (frequency of action potentials during stimulus minus baseline), 4C [4] | odor response (frequency of action potentials during stimulus minus baseline), 7B [5] | odor response (frequency of action potentials during stimulus minus baseline), 6A [6] | odor response (frequency of action potentials during stimulus minus baseline), 2B [7] | odor response (frequency of action potentials during stimulus minus baseline), 4A [8] | odor response (frequency of action potentials during stimulus minus baseline), 6B [9] | odor response (frequency of action potentials during stimulus minus baseline), 4B [10] | odor response (frequency of action potentials during stimulus minus baseline), 2A [11] | odor response (frequency of action potentials during stimulus minus baseline), 2C [12] | also measured |
| --- | --- | --- | --- | --- | --- | --- | --- | --- | --- | --- | --- | --- | --- |
| C=C(C)C1CC=C(C)CC1 (single isomer, unassigned; (+)) [(+)-limonene] | 0 | 0 | 0 | 0 | 0 | 0 | 0 | 0 | + (+, >50 spikes/second) | + (+, >50 spikes/second) | 0 | + (+, >50 spikes/second) |  |
| CCCCCCO [1-hexanol] | 0 | 0 | 0 | 0 | 0 | 0 | 0 | 0 | + (+, >50 spikes/second) | + (+, >50 spikes/second) | 0 | 0 | response to ultra-prolonged activators, 7A [1, 13]: 0; response to ultra-prolonged activators, 7C [2, 13]: 0; response to ultra-prolonged activators, 6C [3, 13]: 0; response to ultra-prolonged activators, 4C [4, 13]: 0; response to ultra-prolonged activators, 7B [5, 13]: 0; response to ultra-prolonged activators, 6A [6, 13]: 0; response to ultra-prolonged activators, 2B [7, 13]: 0; response to ultra-prolonged activators, 4A [8, 13]: 0; response to ultra-prolonged activators, 6B [9, 13]: + (+, >50 spikes/second); response to ultra-prolonged activators, 4B [10, 13]: + (+, >50 spikes/second); response to ultra-prolonged activators, 2A [11, 13]: 0; response to ultra-prolonged activators, 2C [12, 13]: 0 |
| CCCCCCCCO [1-octanol] | 0 | 0 | 0 | 0 | 0 | 0 | 0 | 0 | + (+, >50 spikes/second) | + (+, >50 spikes/second) | 0 | 0 |  |
| C=CC(O)CCCCC (stereo not drawn) [1-octen-3-ol] | 0 | 0 | 0 | 0 | 0 | 0 | 0 | 0 | + (+, >50 spikes/second) | 0 | 0 | 0 |  |
| CCCCCC(C)=O [2-heptanone] | 0 | 0 | 0 | 0 | 0 | 0 | 0 | 0 | + (+, >50 spikes/second) | + (+, >50 spikes/second) | 0 | + (+, >50 spikes/second) |  |
| CCCC(C)=O [2-pentanone] | 0 | 0 | 0 | 0 | 0 | 0 | 0 | 0 | + (+, >50 spikes/second) | + (+, >50 spikes/second) | 0 | 0 |  |
| CCCCC(=O)O [pentanoic acid] |  |  |  |  |  |  |  |  |  |  |  |  | response to inhibitory odors, 7A [1]: 0; response to inhibitory odors, 7C [2]: 0; response to inhibitory odors, 6C [3]: 0; response to inhibitory odors, 4C [4]: 0; response to inhibitory odors, 6A [6]: 0; response to inhibitory odors, 2B [7]: 0; response to inhibitory odors, 4A [8]: 0; response to inhibitory odors, 6B [9]: 0; response to inhibitory odors, 4B [10]: 0; response to inhibitory odors, 2A [11]: 0; response to inhibitory odors, 2C [12, 14]: 0 |
| C=C(C)C1CC=C(C=O)CC1 (stereo not drawn) [perillaldehyde] | 0 | 0 | 0 | 0 | 0 | 0 | 0 | 0 | + (+, >50 spikes/second) | + (+, >50 spikes/second) | 0 |  | response to inhibitory odors, 7A [1]: 0; response to inhibitory odors, 7C [2]: 0; response to inhibitory odors, 6C [3]: 0; response to inhibitory odors, 4C [4]: 0; response to inhibitory odors, 7B [5, 14]: 0; response to inhibitory odors, 6A [6]: 0; response to inhibitory odors, 2B [7]: 0; response to inhibitory odors, 4A [8]: 0; response to inhibitory odors, 6B [9]: 0; response to inhibitory odors, 4B [10]: 0; response to inhibitory odors, 2A [11]: 0 |
